Experimental data: patent publication US12384753B2, “17-beta-hydroxysteroid dehydrogenase type 13 inhibitors and methods of use thereof” (Enanta Pharmaceuticals, Inc., priority 2021, dated 2025)

What follows are compounds tested against Recombinant human HSD17B13 (Homo sapiens (Human), UniProt Q7Z5P4) (assay: HSD17B13 rapid-fire mass spectrometry assay (RF/MS assay)). Conditions: inhibition of HSD17B13; LTB4 10 μM, NAD+ 0.5 mM, RT 3 h; IC50 ranges A-E.
Format: biochemical
How it was run: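 Sf9-expressed human HSD17B13 (80 nM) with 10 μM LTB4 and 0.5 mM NAD+, incubated with compound (0–100 μM) for 3 h at RT in Tris pH 7.5/BSA/Tween-20. After formic acid quench, LTB4 conversion to 12-oxo-LTB4 measured by RapidFire MS/MS. IC50 from normalised residual activity, duplicates.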

Sequence of Recombinant human HSD17B13 (Q7Z5P4 20-300): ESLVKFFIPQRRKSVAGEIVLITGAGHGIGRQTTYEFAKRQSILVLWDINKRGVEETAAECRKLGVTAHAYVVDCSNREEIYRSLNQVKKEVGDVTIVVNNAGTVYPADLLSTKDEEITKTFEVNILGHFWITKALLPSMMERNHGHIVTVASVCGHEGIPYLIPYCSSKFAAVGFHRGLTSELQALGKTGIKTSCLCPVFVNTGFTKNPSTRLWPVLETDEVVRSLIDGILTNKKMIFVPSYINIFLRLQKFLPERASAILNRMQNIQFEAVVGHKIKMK

IC50 [nM] | Compound
< 100 | COc1cc(C(=O)O)c(F)cc1NS(=O)(=O)c1csc(-c2ccc([C@H]3CC[C@H](C(F)(F)F)CC3)c(F)c2C)n1 [Example 603]
< 100 | COc1cc(C(=O)O)c(F)cc1NS(=O)(=O)c1csc(-c2ccc(C3=CCC(C)(C)CC3)c(OC)c2F)n1 [Example 545]
100 to 500 | COc1cc(C(=O)O)ccc1NS(=O)(=O)c1csc(-c2ccc(C#CC3CCCCC3)cc2)n1 [Example 485]
100 to 500 | COc1cc(C(=O)O)ccc1NS(=O)(=O)c1ccc(-c2ccc(C3=CCC(C)(C)CC3)cc2)s1 [Example 429, 4-((5-(4′,4′-dimethyl-2′,3′,4′,5′-tetrahydro-[1,1′-biphenyl]-4-yl)thiophene)-2-sulfonamido)-3-methoxybenzoic acid]
100 to 500 | COc1cc(C(=O)O)c(F)cc1NS(=O)(=O)c1ccn(-c2ccc(C3CCC(C)(C)CC3)cc2)n1 [Example 690]
< 100 | CCC1CC=C(c2ccc(-c3nc(S(=O)(=O)Nc4cc(F)c(C(=O)O)cc4OC)cs3)c(C(F)(F)F)c2)CC1 (stereo not drawn) [Example 785]
500 to 1000 | COc1cc(C(=O)O)ccc1NS(=O)(=O)N1Cc2ccc(-c3ccc(C4CCCCC4)cc3)cc2C1 [Example 364]
100 to 500 | COc1cc(C(=O)O)c(F)cc1NS(=O)(=O)c1csc(-c2ccc([C@H]3CC[C@@H](C(C)C)CC3)cc2C(F)(F)F)n1 [Example 619]
100 to 500 | COc1cc(C(=O)O)c(F)cc1NS(=O)(=O)c1ccc2sc(-c3ccc(C4CC4)cc3)nc2c1 [Example 669]
100 to 500 | COc1cc(C(=O)O)c(F)cc1NS(=O)(=O)c1csc(-c2ccc(-c3ccc(-c4ccc(C(F)(F)C(F)(F)F)cc4)cc3C(F)(F)F)cc2C(F)(F)F)n1 [Example 788]
100 to 500 | COc1cc(C(=O)O)c(F)cc1NS(=O)(=O)c1csc(-c2ccc(C3=CCC(C)(C)CC3)cc2C(C)C)n1 [Example 557]

Further lines, the compound ahead of its results:

Compound | IC50 [nM]
COc1cc(C(=O)O)ccc1NS(=O)(=O)c1csc(C#Cc2ccccc2OC(F)(F)F)n1 [Example 238] | < 100
O=C(O)c1ccccc1NS(=O)(=O)c1cnc(-c2ccc(F)cc2)s1 [Example 16] | 1000 to 100000
COc1cc(C(=O)O)ccc1NS(=O)(=O)c1ccc(C2=CCC(c3ccccc3)CC2)cc1F (stereo not drawn) [Example 343, 4-((3-fluoro-2′,3′,4′,5′-tetrahydro-[1,1′:4′,1″-terphenyl])-4-sulfonamido)-3-methoxybenzoic acid] | < 100
COc1cc(C(=O)O)ccc1NS(=O)(=O)c1csc(C#Cc2cccc(OC(F)(F)F)c2)n1 [Example 239] | < 100
O=C(O)Cc1ccc(CNS(=O)(=O)c2cnc(-c3ccc(F)cc3)s2)cc1 [Example 30] | > 100000
O=S(=O)(Nc1ccc(O)cc1)c1cnc(-c2ccc(F)cc2)s1 [Example 108] | 1000 to 100000
COc1cc(C(=O)O)ccc1NS(=O)(=O)c1csc(N2CCCC(Cc3ccc(C)cc3)C2)n1 (stereo not drawn) [Example 274] | 500 to 1000
COc1ccc(-c2ccc(-c3ccc(S(=O)(=O)Nc4ccc(C(=O)O)cc4OC)s3)cc2)cc1 [Example 206] | 100 to 500
O=C(O)c1cc(F)c(NS(=O)(=O)c2cnc(-c3ccc(F)cc3)s2)c(F)c1 [Example 46] | 100 to 500
O=C(O)c1ccc2c(c1)CCCN2S(=O)(=O)c1ccc(F)cc1 [Example 7] | 1000 to 100000
COc1cc(C(=O)O)ccc1NS(=O)(=O)c1csc(N2CCCC(NCc3ccccc3)C2)n1 (stereo not drawn) [Example 273] | 1000 to 100000
N#Cc1cc(C(=O)O)ccc1NS(=O)(=O)c1cnc(-c2ccc(F)cc2)s1 [Example 76] | 500 to 1000
O=S(=O)(Nc1ccccc1)c1csc(-c2ccccc2)n1 [Example 25] | > 100000
